In brackets after ≈: the same amount, converted by molar mass.
System: A. baumannii
Assay: microbe, parasite or virus in culture
In short: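 Values come from CLSI-guided (M07, M100) broth microdilution in CAMHB. Endpoint: lowest concentration halting growth, judged by naked eye or by OD600 plateau.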

CN1C(=O)[C@H](CCCCN)NC(=O)[C@H](CCCN)NCc2cccnc2Sc2c(Cl)ccc(Cl)c2CNC(=O)[C@@H]1Cc1c[nH]c2ccccc12 [RO7075573]
MIC 80% (ROB08707, Study ROC012): 0.12 µg/mL (≈ 0.162 µM)
MIC 100% (ROB08707, Study ROC012): 32 µg/mL (≈ 43.3 µM)
MIC 80% (ROB08708, Study LGC281440): ≤0.06 µg/mL
MIC 100% (ROB08708, Study LGC281440): 16 µg/mL (≈ 21.6 µM)
MIC 80% (ROB08708, Study LGC282160): 0.12 µg/mL (≈ 0.162 µM)
MIC 100% (ROB08708, Study LGC282160): 64 µg/mL (≈ 86.5 µM)
MIC 80% (ROB08708, Study LGC284879): 0.12 µg/mL (≈ 0.162 µM)
MIC 100% (ROB08708, Study LGC284879): >64 µg/mL
MIC 80% (ROB08708, Study LGC285582): ≤0.06 µg/mL
MIC 100% (ROB08708, Study LGC285582): 64 µg/mL (≈ 86.5 µM)
MIC 80% (ROB08708, Study LGC286210): 0.12 µg/mL (≈ 0.162 µM)
MIC 100% (ROB08708, Study LGC286210): 64 µg/mL (≈ 86.5 µM)
MIC 80% (ROB08708, Study LGC293598): ≤0.06 µg/mL
MIC 100% (ROB08708, Study LGC293598): >64 µg/mL
MIC 80% (ROB08708, Study LGC294355): 0.12 µg/mL (≈ 0.162 µM)
MIC 100% (ROB08708, Study LGC294355): >64 µg/mL
MIC 80% (ROB08708, Study LGC295147): 0.12 µg/mL (≈ 0.162 µM)
MIC 100% (ROB08708, Study LGC295147): 64 µg/mL (≈ 86.5 µM)
MIC 80% (ROB08708, Study LGC296813): 0.12 µg/mL (≈ 0.162 µM)
MIC 100% (ROB08708, Study LGC296813): >64 µg/mL
MIC 80% (ROB08708, Study LGC299544): 0.12 µg/mL (≈ 0.162 µM)
MIC 100% (ROB08708, Study LGC299544): 64 µg/mL (≈ 86.5 µM)
MIC 80% (ROB08708, Study LGC301026): 0.12 µg/mL (≈ 0.162 µM)
MIC 100% (ROB08708, Study LGC301026): >64 µg/mL
MIC 80% (ROB08708, Study LGC308175): ≤0.06 µg/mL
MIC 100% (ROB08708, Study LGC308175): 64 µg/mL (≈ 86.5 µM)
MIC 80% (ROB08708, Study ROC010): 0.12 µg/mL (≈ 0.162 µM)
MIC 100% (ROB08708, Study ROC010): 16 µg/mL (≈ 21.6 µM)
MIC 80% (ROB08708, Study ROC012): 0.12 µg/mL (≈ 0.162 µM)
MIC 100% (ROB08708, Study ROC012): 64 µg/mL (≈ 86.5 µM)
MIC 80% (ROB08709, Study LGC281440): 0.12 µg/mL (≈ 0.162 µM)
MIC 100% (ROB08709, Study LGC281440): 16 µg/mL (≈ 21.6 µM)
MIC 80% (ROB08709, Study LGC282160): 0.12 µg/mL (≈ 0.162 µM)
MIC 100% (ROB08709, Study LGC282160): >64 µg/mL
MIC 80% (ROB08709, Study LGC284879): 0.25 µg/mL (≈ 0.338 µM)
MIC 100% (ROB08709, Study LGC284879): >64 µg/mL
MIC 80% (ROB08709, Study LGC285582): 0.12 µg/mL (≈ 0.162 µM)
MIC 100% (ROB08709, Study LGC285582): 64 µg/mL (≈ 86.5 µM)
MIC 80% (ROB08709, Study LGC286210): 0.12 µg/mL (≈ 0.162 µM)
MIC 100% (ROB08709, Study LGC286210): 64 µg/mL (≈ 86.5 µM)
MIC 80% (ROB08709, Study LGC293598): 0.12 µg/mL (≈ 0.162 µM)
MIC 100% (ROB08709, Study LGC293598): >64 µg/mL
MIC 80% (ROB08709, Study LGC294355): 0.12 µg/mL (≈ 0.162 µM)
MIC 100% (ROB08709, Study LGC294355): >64 µg/mL
MIC 80% (ROB08709, Study LGC295147): 0.12 µg/mL (≈ 0.162 µM)
MIC 100% (ROB08709, Study LGC295147): 64 µg/mL (≈ 86.5 µM)
MIC 80% (ROB08709, Study LGC296813): 0.12 µg/mL (≈ 0.162 µM)
MIC 100% (ROB08709, Study LGC296813): 64 µg/mL (≈ 86.5 µM)
MIC 80% (ROB08709, Study LGC299544): 0.25 µg/mL (≈ 0.338 µM)
MIC 100% (ROB08709, Study LGC299544): 64 µg/mL (≈ 86.5 µM)
MIC 80% (ROB08709, Study LGC301026): 0.12 µg/mL (≈ 0.162 µM)
MIC 100% (ROB08709, Study LGC301026): 64 µg/mL (≈ 86.5 µM)
MIC 80% (ROB08709, Study LGC308175): 0.12 µg/mL (≈ 0.162 µM)
MIC 100% (ROB08709, Study LGC308175): >64 µg/mL
MIC 80% (ROB08709, Study ROC010): 0.25 µg/mL (≈ 0.338 µM)
MIC 100% (ROB08709, Study ROC010): 64 µg/mL (≈ 86.5 µM)
MIC 80% (ROB08709, Study ROC012): 0.25 µg/mL (≈ 0.338 µM)
MIC 100% (ROB08709, Study ROC012): 64 µg/mL (≈ 86.5 µM)
MIC 80% (ROB08710, Study LGC281440): 0.25 µg/mL (≈ 0.338 µM)
MIC 100% (ROB08710, Study LGC281440): 8 µg/mL (≈ 10.8 µM)
MIC 80% (ROB08710, Study LGC282160): 0.25 µg/mL (≈ 0.338 µM)
MIC 100% (ROB08710, Study LGC282160): 64 µg/mL (≈ 86.5 µM)
MIC 80% (ROB08710, Study LGC284879): 0.25 µg/mL (≈ 0.338 µM)
MIC 100% (ROB08710, Study LGC284879): >64 µg/mL
MIC 80% (ROB08710, Study LGC285582): 0.25 µg/mL (≈ 0.338 µM)
MIC 100% (ROB08710, Study LGC285582): 64 µg/mL (≈ 86.5 µM)
MIC 80% (ROB08710, Study LGC286210): 0.12 µg/mL (≈ 0.162 µM)
MIC 100% (ROB08710, Study LGC286210): 64 µg/mL (≈ 86.5 µM)
MIC 80% (ROB08710, Study LGC293598): 0.12 µg/mL (≈ 0.162 µM)
MIC 100% (ROB08710, Study LGC293598): >64 µg/mL
MIC 80% (ROB08710, Study LGC294355): 0.5 µg/mL (≈ 0.676 µM)
MIC 100% (ROB08710, Study LGC294355): >64 µg/mL
MIC 80% (ROB08710, Study LGC295147): 0.12 µg/mL (≈ 0.162 µM)
MIC 100% (ROB08710, Study LGC295147): 32 µg/mL (≈ 43.3 µM)
MIC 80% (ROB08710, Study LGC296813): 0.12 µg/mL (≈ 0.162 µM)
MIC 100% (ROB08710, Study LGC296813): 64 µg/mL (≈ 86.5 µM)
MIC 80% (ROB08710, Study LGC299544): 0.5 µg/mL (≈ 0.676 µM)
MIC 100% (ROB08710, Study LGC299544): 64 µg/mL (≈ 86.5 µM)
MIC 80% (ROB08710, Study LGC301026): 0.12 µg/mL (≈ 0.162 µM)
MIC 100% (ROB08710, Study LGC301026): 64 µg/mL (≈ 86.5 µM)
MIC 80% (ROB08710, Study LGC308175): 0.12 µg/mL (≈ 0.162 µM)
MIC 100% (ROB08710, Study LGC308175): 32 µg/mL (≈ 43.3 µM)
MIC 80% (ROB08710, Study ROC010): 0.25 µg/mL (≈ 0.338 µM)
MIC 100% (ROB08710, Study ROC010): 0.5 µg/mL (≈ 0.676 µM)
MIC 80% (ROB08710, Study ROC012): 0.25 µg/mL (≈ 0.338 µM)
MIC 100% (ROB08710, Study ROC012): 32 µg/mL (≈ 43.3 µM)
Fold more potent than RO7036668 (panel of A. baumannii): 4- to 64 fold

From article PMC10794144, “A novel antibiotic class targeting the lipopolysaccharide transporter” (Nature, 2024)
